Experimental data from patent US7163952B2, “Azole compound and medicinal use thereof” (Japan Tobacco Inc., priority 2001, dated 2007).
Structures can show the parent of a compound that is named as a salt.

Structure (SMILES)	melting point
CCN(c1ccc(C(=O)O)cc1)c1nc(-c2cccc(OCc3ccc(C4CCCCC4)cc3)c2)cs1 [Example 140, 4-(N-(4-(3-(4-cyclohexylbenzyloxy)phenyl)-2-thiazolyl)-N-ethylamino)benzoic acid]	179 to 180 °C
COc1ccc(OCc2ccc(C(F)(F)F)cc2)c(-c2csc(Nc3ccc(C(=O)O)cc3)n2)c1 [Example 155, 4-(4-(5-methoxy-2-(4-trifluoromethylbenzyloxy)phenyl)-2-thiazolylamino)benzoic acid]	218 to 219 °C
CC(=O)OC(C)OC(=O)c1ccc(CN(C)c2nc(-c3ccc(OCc4ccc(C5CCCCC5)cc4)cc3)cs2)cc1 (centres unmarked) [Example 250, 1-acetoxyethyl 4-((N-(4-(4-(4-cyclohexylbenzyloxy)phenyl)-2-thiazolyl)-N-methylamino)methyl)benzoate]	116 to 117 °C
CN(Cc1ccc(C(=O)O)cc1)c1nc(-c2ccc(N(C)Cc3ccc(C(C)(C)C)cc3)c(Cl)c2)cs1 [Example 244, 4-((N-(4-(4-(N-(4-tert-butylbenzyl)-N-methylamino)-3-chlorophenyl)-2-thiazolyl)-N-methylamino)methyl)benzoic acid]	153 to 154 °C
CN(c1ccc(C(=O)O)cc1)c1nc(-c2ccc(NCc3ccc(C4CCCCC4)cc3)cc2)cs1.O=S(=O)(O)O	239 °C (dec.)
CN(Cc1ccc(C(=O)O)cc1)c1nc(-c2ccc3[nH]c(-c4ccc(C5CCCCC5)cc4)nc3c2)cs1 [Example 231, 4-((N-(4-(2-(4-cyclohexylphenyl)-1H-benzoimidazol-5-yl)-2-thiazolyl)-N-methylamino)methyl)benzoic acid]	250 °C
CC(C)N(c1ccc(C(=O)O)c(Cl)c1)c1nc(-c2ccc(NC(=O)c3ccc(C4CCCCC4)cc3)cc2)cs1 [Example 38, 2-chloro-4-(N-(4-(4-(4-cyclohexylbenzoylamino)phenyl)-2-thiazolyl)-N-isopropylamino)benzoic acid]	220 °C (dec.)
CN(Cc1ccc(C2CCCCC2)cc1)c1ccc(-c2csc(N(C)Cc3ccc(C(=O)O)cc3)n2)cc1.CS(=O)(=O)O	167 to 170 °C
CC(C)N(Cc1ccc(C(=O)O)cc1)c1nc(-c2ccc(NS(=O)(=O)c3ccc(C(C)(C)C)cc3)cc2)cs1 [Example 104, 4-((N-(4-(4-(4-tert-butylbenzenesulfonylamino)phenyl)-2-thiazolyl)-N-isopropylamino)methyl)benzoic acid]	178 to 180 °C
O=C(O)c1ccc(Cc2nc(-c3ccc(OCc4ccc(C5CCCCC5)cc4)cc3)cs2)cc1 [Example 48, 4-(4-(4-(4-cyclohexylbenzyloxy)phenyl)-2-thiazolylmethyl)benzoic acid]	235 to 238 °C
CN(CCC1Cc2ccccc2C1)c1ccc(-c2csc(N(C)Cc3ccc(C(=O)O)cc3)n2)cc1 [Example 223, 4-((N-(4-(4-(N-(2-(2-indanyl)ethyl)-N-methylamino)phenyl)-2-thiazolyl)-N-methylamino)methyl)benzoic acid]	174 to 176 °C
CN(Cc1ccc([C@H]2CCC[C@H](O)C2)cc1)c1ccc(-c2csc(N(C)Cc3ccc(C(=O)O)cc3)n2)cc1 (relative stereo) [Example 206, trans-4-((N-(4-(4-(N-(4-(3-hydroxycyclohexyl)benzyl)-N-methylamino)phenyl)-2-thiazolyl)-N-methylamino)methyl)benzoic acid]	159 to 161 °C
CC(C)N(c1ccc(C(=O)O)cc1)c1nc(-c2ccc(NC(=O)C3CCCCC3)cc2)cs1 [Example 12, 4-(N-(4-(4-(cyclohexanecarbonylamino)phenyl)-2-thiazolyl)-N-isopropylamino)benzoic acid]	230 °C (dec.)
CC(C)(c1ccc(C(=O)O)cc1)c1nc(-c2ccc(NC(=O)c3ccc(N4CCOCC4)cc3)cc2)cs1 [Example 44, 4-(1-methyl-1-(4-(4-(4-morpholinobenzoylamino)phenyl)-2-thiazolyl)ethyl)benzoic acid]	290 °C (dec.)
CN(C)CCN(c1ccc(C(=O)O)cc1)c1nc(-c2ccc(OCc3ccc(Cl)c(Cl)c3)cc2)cs1 [Example 97, 4-(N-(4-(4-(3,4-dichlorobenzyloxy)phenyl)-2-thiazolyl)-N-(2-dimethylaminoethyl)amino)benzoic acid]	230 °C (dec.)
CC(C)N(Cc1ccc(C(=O)O)cc1)c1nc(-c2cccc(NC(=O)c3ccc(C4CCCCC4)cc3)c2)cs1 [Example 146, 4-((N-(4-(3-(4-cyclohexylbenzoylamino)phenyl)-2-thiazolyl)-N-isopropylamino)methyl)benzoic acid]	228 to 230 °C
CN(c1ccc(C(=O)O)cc1)c1nc(-c2ccc(NCc3ccc(C4CCCCC4)cc3)cc2)cs1.CS(=O)(=O)O	231 to 233 °C
CN(Cc1ccc(C2CCOCC2)cc1)c1ccc(-c2csc(N(C)Cc3ccc(C(=O)O)cc3)n2)cc1 [Example 210, 4-((N-methyl-N-(4-(4-(N-methyl-N-(4-(tetrahydropyran-4-yl)benzyl)amino)phenyl)-2-thiazolyl)amino)methyl)benzoic acid]	225 to 227 °C
CC(C)N(Cc1ccc(C(=O)O)cc1)c1nc(-c2ccc(NC(=O)c3ccc(N4CCCCC4)cc3)cc2)cs1 [Example 62, 4-((N-isopropyl-N-(4-(4-(4-piperidinobenzoylamino)phenyl)-2-thiazolyl)amino)methyl)benzoic acid]	234 °C (dec.)
CN(Cc1ccc(C2CCCCC2)cc1)c1ccc(-c2csc(N(C)c3ccc(C(=O)O)cc3)n2)cc1 [Example 132, 4-(N-(4-(4-(N-(4-cyclohexylbenzyl)-N-methylamino)phenyl)-2-thiazolyl)-N-methylamino)benzoic acid]	185 to 189 °C
O=C(O)c1ccc(N(CC2CCCCC2)c2nc(-c3ccc(NCc4ccc(Cl)c(Cl)c4)cc3)cs2)cc1 [Example 129, 4-(N-cyclohexylmethyl-N-(4-(4-(3,4-dichlorobenzylamino)phenyl)-2-thiazolyl)amino)benzoic acid]	187 to 189 °C

The remaining lines, values ahead:

melting point	Structure (SMILES)
250 °C (dec.)	CC(C)N(Cc1ccc(C(=O)O)cc1)c1nc(-c2ccc(NC(=O)c3ccc(C4CCCCC4)cc3)cc2)cs1 [Example 61, 4-((N-(4-(4-(4-cyclohexylbenzoylamino)phenyl)-2-thiazolyl)-N-isopropylamino)methyl)benzoic acid]
143 to 149 °C	CC(C)CCN(c1ccc(C(=O)O)cc1)c1nc(-c2cc(Cl)ccc2OCc2ccccc2)cs1 [Example 168, 4-(N-(4-(2-benzyloxy-5-chlorophenyl)-2-thiazolyl)-N-(3-methylbutyl)amino)benzoic acid]
147 to 148 °C	CCC(CC)c1ccc(CN(C)c2ccc(-c3csc(N(C)Cc4ccc(C(=O)O)cc4)n3)cc2)cc1 [Example 241, 4-((N-(4-(4-(N-(4-(1-ethylpropyl)benzyl)-N-methylamino)phenyl)-2-thiazolyl)-N-methylamino)methyl)benzoic acid]
259 to 261 °C	O=C(O)c1ccc(C(=O)c2nc(-c3ccc(OCc4ccc(C5CCCCC5)cc4)cc3)cs2)cc1 [Example 71, 4-(4-(4-(4-cyclohexylbenzyloxy)phenyl)-2-thiazolecarbonyl)benzoic acid]
230 °C (dec.)	CC(C)N(c1ccc(C(=O)O)cc1)c1nc(-c2ccc(NC(=O)c3ccc(N4CCOCC4)cc3)cc2)cs1.Cl
75 to 79 °C	CC(OC(=O)OC1CCCCC1)OC(=O)c1ccc(CN(C)c2nc(-c3ccc(OCc4ccc(C5CCCCC5)cc4)cc3)cs2)cc1 (centres unmarked) [Example 272, 1-cyclohexyloxycarbonyloxyethyl 4-((N-(4-(4-(4-cyclohexylbenzyloxy)phenyl)-2-thiazolyl)-N-methylamino)methyl)benzoate]
158 to 160 °C	O=C(O)c1ccc(CN(CCC2CCCCC2)c2nc(-c3cc(Cl)ccc3OCc3ccccc3)cs2)cc1 [Example 164, 4-((N-(4-(2-benzyloxy-5-chlorophenyl)-2-thiazolyl)-N-(2-cyclohexylethyl)amino)methyl)benzoic acid]
99 to 101 °C	CCOC(=O)OC(C)OC(=O)c1ccc(CN(C)c2nc(-c3ccc(OCc4ccc(C5CCCCC5)cc4)cc3)cs2)cc1 (centres unmarked) [Example 269, 1-ethoxycarbonyloxyethyl 4-((N-(4-(4-(4-cyclohexylbenzyloxy)phenyl)-2-thiazolyl)-N-methylamino)methyl)benzoate]
234 to 236 °C	CN(c1ccc(C(=O)O)cc1)c1nc(-c2ccc(NCc3ccc(C4CCCCC4)cc3)cc2)cs1 (as salt: hydrochloride) [Example 258, 4-(N-(4-(4-(4-cyclohexylbenzylamino)phenyl)-2-thiazolyl)-N-methylamino)benzoic acid hydrochloride]
250 °C (dec.)	CC(C)N(Cc1ccc(C(=O)O)cc1)c1nc(-c2ccc(NC(=O)c3ccc(-c4ccccc4)cc3)cc2)cs1 [Example 64, 4-((N-(4-(4-(4-biphenylcarbonylamino)phenyl)-2-thiazolyl)-N-isopropylamino)methyl)benzoic acid]
250 °C (dec.)	O=C(O)c1ccc(Nc2nc(-c3ccc(NC(=O)c4ccc(C5CCCCC5)cc4)cc3)cs2)cc1 [Example 6, 4-(4-(4-(4-cyclohexylbenzoylamino)phenyl)-2-thiazolylamino)benzoic acid]
155 to 157 °C	CN(Cc1ccc(C2CCCCC2)cc1)c1cc(-c2csc(N(C)Cc3ccc(C(=O)O)cc3)n2)cc(Cl)n1 [Example 228, 4-((N-(4-(2-chloro-6-(N-(4-cyclohexylbenzyl)-N-methylamino)-4-pyridyl)-2-thiazolyl)-N-methylamino)methyl)benzoic acid]
259 to 261 °C	CC(C)N(Cc1ccccc1C(=O)O)c1nc(-c2ccc(OCc3ccc(C4CCCCC4)cc3)cc2)cs1 [Example 88, 2-((N-(4-(4-(4-cyclohexylbenzyloxy)phenyl)-2-thiazolyl)-N-isopropylamino)methyl)benzoic acid]
104 to 107 °C	COc1ccc(OCc2ccc(C(F)(F)F)cc2)c(-c2csc(N(CCC3CCCCC3)c3ccc(C(=O)O)cc3)n2)c1 [Example 170, 4-(N-(2-cyclohexylethyl)-N-(4-(5-methoxy-2-(4-trifluoromethylbenzyloxy)phenyl)-2-thiazolyl)amino)benzoic acid]
